Some test systems named below: MOLT-4; SK-MEL-5; UO-31; SF-539; NCI-H23; HOP-62; RPMI-8226; OVCAR-4; K562; CCRF-CEM; NCI-H522; KM12; ACHN; IGROV-1; OVCAR-8; NCI/ADR-RES; HCT-116; NCI-H226; SNB-19; HL-60.
What all share (assay): DTP human tumour cell line panel, 48 h

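96-well plates; 48 h exposure; 5 concentrations. Endpoints by linear interpolation between flanking doses. Not reached: highest tested concentration assigned. GI50 = concentration required for 50% inhibition of growth.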 The source made the active and inactive calls. Cut-off read from the data, not from the text of the source: active = GI50 up to about 1.1 µM and inactive = higher. A value given as a limit tells only on which side of the number the result lay.

The text below walks through data of ChEMBL document CHEMBL1201862, “PubChem BioAssay data set” (2004).

As for `COc1ccc2c(c1)CCN=C2c1ccccc1CCCCl`, the GI50 in the experiment with MOLT-4 was 13 µM (inactive); in the experiment with SK-MEL-5 it was 4.99 µM (inactive); with UO-31 it was 10 µM (inactive); with SF-539 it was 18.6 µM (inactive); with NCI-H23, 4.85 µM (inactive); with HOP-62, 28.6 µM (inactive). The GI50 in the experiment on RPMI-8226 is 1.84 µM (inactive); with OVCAR-4, 13.7 µM (inactive); in the experiment on K562 it was 5.62 µM (inactive); in the experiment on CCRF-CEM it was 41.4 µM (inactive); in the experiment on NCI-H522, 11.5 µM (inactive); in the experiment with KM12 it was 14.9 µM (inactive). Moreover, the GI50 in the experiment on ACHN is 24.3 µM (inactive); in the experiment on IGROV-1, 20.1 µM (inactive); in the experiment on OVCAR-8 it was 16.8 µM (inactive); with NCI/ADR-RES, 26.4 µM (inactive); in the experiment with HCT-116, 18.2 µM (inactive); with NCI-H226, 15.7 µM (inactive). Also, the GI50 is 7.67 µM (inactive) in the experiment with SNB-19 and 11.4 µM (inactive) in the experiment on HL-60.
Take `CCC(=O)c1cc(C(=O)C(=S)SC)cc(C(=O)C(=S)SC)c1`: the GI50 in the experiment with MOLT-4 is 12 µM (inactive); with SK-MEL-5, > 82.8 µM (inactive); in the experiment on UO-31, 48.4 µM (inactive); in the experiment on SF-539 it was > 100 µM (inactive); with NCI-H23, > 76.7 µM (inactive); in the experiment on HOP-62, > 100 µM (inactive). Moreover, the GI50 is 99.3 µM (inactive) in the experiment with RPMI-8226; > 100 µM (inactive) in the experiment with OVCAR-4; 41.9 µM (inactive) in the experiment on K562; 3.05 µM (inactive) in the experiment with CCRF-CEM; > 55.3 µM (inactive) in the experiment on NCI-H522; > 100 µM (inactive) in the experiment with KM12. Further, the GI50 was > 87.1 µM (inactive) in the experiment with ACHN; > 100 µM (inactive) with IGROV-1; > 100 µM (inactive) in the experiment on OVCAR-8; > 100 µM (inactive) in the experiment with NCI/ADR-RES; > 100 µM (inactive) in the experiment with HCT-116; > 100 µM (inactive) with NCI-H226. Also, the GI50 is > 100 µM (inactive) in the experiment on SNB-19 and 4.83 µM (inactive) in the experiment with HL-60.
For the compound `c1ccc2c(c1)nnn2C1CCCCO1` (stereo not given), the GI50 with MOLT-4, in the experiment with SK-MEL-5, in the experiment on UO-31, with SF-539, in the experiment on NCI-H23 and with HOP-62 was > 100 µM (inactive) throughout. For the same compound, the GI50 in the experiment on RPMI-8226, with OVCAR-4, with K562, in the experiment on CCRF-CEM, in the experiment on NCI-H522 and in the experiment on KM12 was > 100 µM (inactive) each time. Also, the GI50 in the experiment on ACHN, in the experiment with IGROV-1, in the experiment on OVCAR-8, in the experiment with NCI/ADR-RES, with HCT-116 and in the experiment on NCI-H226 was > 100 µM (inactive) each time. In addition, the GI50 with SNB-19 and in the experiment with HL-60 was > 100 µM (inactive) in each case.
As to `COc1ccccc1NC(=S)N/N=C(/c1ccccc1)c1ccccn1`, the GI50 is < 0.0182 µM (active) with MOLT-4; 0.0904 µM (active) with SK-MEL-5; 0.2 µM (active) in the experiment on UO-31; 1.37 µM (inactive) in the experiment on SF-539; < 0.013 µM (active) with NCI-H23; 0.251 µM (active) in the experiment with HOP-62. For the same compound, the 50% growth inhibitory concentration (GI50) was 0.0299 µM (active) in the experiment with RPMI-8226; 0.71 µM (active) in the experiment on OVCAR-4; < 0.0128 µM (active) in the experiment on K562; 0.0316 µM (active) with CCRF-CEM; 0.499 µM (active) with NCI-H522; 0.151 µM (active) in the experiment on KM12. Moreover, the GI50 with ACHN is 0.0257 µM (active); in the experiment with IGROV-1, 0.0225 µM (active); in the experiment on OVCAR-8 it was 0.0627 µM (active); with NCI/ADR-RES it was 0.0853 µM (active); with HCT-116, < 0.0147 µM (active); in the experiment with NCI-H226, 0.146 µM (active). In addition, the values for the GI50 with SNB-19 and in the experiment with HL-60 were 2.6 µM (inactive) and < 0.0131 µM (active), respectively.
